# Results: PubChem BioAssay (NCI)
#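 Grown in 96-well plates, cells were treated for 48 hours with each compound at five concentrations. Insufficient inhibition: endpoint recorded as highest concentration tested. Here, GI50 denotes the concentration required for 50% inhibition of growth. Definition used: TGI = concentration required for complete inhibition of growth.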
# Columns and labels:
# Assay in all cases: DTP human tumour cell line panel, 48 h
# [1] = system: MDA-MB-231 breast
# [2] = system: T-47D breast
# [3] = system: MCF7 breast
# [4] = system: SW-620 colon
# [5] = system: HT29 colon
# [6] = system: UO-31 renal
# [7] = system: OVCAR-4 ovarian
# [8] = system: BT-549 breast
# [9] = system: SF-539 CNS
# [10] = system: NCI-H522 lung
# [11] = system: A549 NSCLC
# [12] = system: HCT-116 colon
# [13] = system: ACHN renal
# [14] = system: CAKI-1 renal
# [15] = system: SNB-75 CNS
# [16] = system: LOX IMVI melanoma
# [17] = system: DU-145 prostate
# [18] = system: SR leukemia
# [19] = system: SF-268 CNS
# [20] = system: SF-295 CNS
# [21] = system: SK-MEL-2 melanoma
# [22] = system: HS 578T breast
# [23] = system: OVCAR-8 ovarian
# [24] = system: SK-MEL-28 melanoma
# [25] = system: SK-OV-3 ovarian
# [26] = system: HCT-15 colon
# [27] = system: MALME-3M melanoma
# [28] = system: SNB-19 CNS
# [29] = system: NCI-H23 lung
# [30] = system: K-562 leukemia
# [31] = system: MOLT-4 leukemia
# [32] = system: UACC-62 melanoma
# [33] = system: NCI-H460 lung
# [34] = system: NCI/ADR-RES ovarian
# [35] = system: RXF 393 renal
# [36] = system: RPMI-8226 leukemia
# [37] = system: OVCAR-5 ovarian
# [38] = system: KM12 colon
# [39] = system: A498 renal
# [40] = system: EKVX NSCLC
# [41] = system: HOP-92 NSCLC
# [42] = system: UACC-257 melanoma
# [43] = system: MDA-MB-435
# [44] = system: M14 melanoma
# [45] = system: IGROV1 ovarian
# [46] = system: HL-60(TB) leukemia
# [47] = system: CCRF-CEM leukemia
# [48] = system: PC-3 prostate
# [49] = system: TK-10 renal
# [50] = system: HOP-62 NSCLC
# [51] = system: COLO 205 colon
# [52] = system: HCC-2998 colon
# [53] = system: OVCAR-3 ovarian
# [54] = system: SK-MEL-5 melanoma
# [55] = system: 786-0 renal
# [56] = system: U251 CNS
# [57] = system: NCI-H226 lung
# [58] = system: SN12C renal
compound,measurement,setting,value
Cn1ccnc1C(=O)/C=C/c1ccc(C(=O)Nc2ccccc2O)cc1,GI50,[1],3.26 µM
same,TGI,[1],12.3 µM
same,GI50,[2],2.68 µM
same,TGI,[2],10.8 µM
same,GI50,[3],1.77 µM
same,TGI,[3],6.51 µM
same,GI50,[4],1.62 µM
same,TGI,[4],4.12 µM
same,GI50,[5],2.4 µM
same,TGI,[5],7.3 µM
same,GI50,[6],1.24 µM
same,TGI,[6],2.5 µM
same,GI50,[7],2.5 µM
same,TGI,[7],12.5 µM
same,GI50,[8],1.8 µM
same,TGI,[8],5.05 µM
same,GI50,[9],1.56 µM
same,TGI,[9],3.5 µM
same,GI50,[10],1.86 µM
same,TGI,[10],5.47 µM
same,GI50,[11],3.03 µM
same,TGI,[11],13.6 µM
same,GI50,[12],0.866 µM
same,TGI,[12],2.64 µM
same,GI50,[13],1.99 µM
same,TGI,[13],4.01 µM
same,GI50,[14],1.65 µM
same,TGI,[14],4.03 µM
same,GI50,[15],0.918 µM
same,TGI,[15],8.58 µM
same,GI50,[16],1.38 µM
same,TGI,[16],3.12 µM
same,GI50,[17],1.95 µM
same,TGI,[17],5.23 µM
same,GI50,[18],0.307 µM
same,TGI,[18],6.55 µM
same,GI50,[19],2.39 µM
same,TGI,[19],7.2 µM
same,GI50,[20],3.53 µM
same,TGI,[20],12.1 µM
same,GI50,[21],5.9 µM
same,TGI,[21],21.8 µM
same,GI50,[22],2.95 µM
same,TGI,[22],15.9 µM
same,GI50,[23],3.29 µM
same,TGI,[23],14.9 µM
same,GI50,[24],2.11 µM
same,TGI,[24],5.07 µM
same,GI50,[25],4.13 µM
same,TGI,[25],14.5 µM
same,GI50,[26],1.42 µM
same,TGI,[26],5.49 µM
same,GI50,[27],1.63 µM
same,TGI,[27],3.81 µM
same,GI50,[28],2.6 µM
same,TGI,[28],11.5 µM
same,GI50,[29],2.91 µM
same,TGI,[29],9.67 µM
same,GI50,[30],0.939 µM
same,TGI,[30],34 µM
same,GI50,[31],2.38 µM
same,TGI,[31],8.18 µM
same,GI50,[32],1.93 µM
same,TGI,[32],5.01 µM
same,GI50,[33],1.67 µM
same,TGI,[33],5.6 µM
same,GI50,[34],2.86 µM
same,TGI,[34],22.6 µM
same,GI50,[35],1.62 µM
same,TGI,[35],3.41 µM
same,GI50,[36],0.62 µM
same,TGI,[36],3.8 µM
same,GI50,[37],2.39 µM
same,TGI,[37],7.09 µM
same,GI50,[38],1.96 µM
same,TGI,[38],4.44 µM
same,GI50,[39],2.07 µM
same,TGI,[39],6.18 µM
same,GI50,[40],2.45 µM
same,TGI,[40],7.09 µM
same,GI50,[41],2.11 µM
same,TGI,[41],6.68 µM
same,GI50,[42],2.51 µM
same,TGI,[42],13.3 µM
same,GI50,[43],2.22 µM
same,TGI,[43],4.85 µM
same,GI50,[44],1.82 µM
same,TGI,[44],4.28 µM
same,GI50,[45],1.97 µM
same,TGI,[45],4.88 µM
same,GI50,[46],2.13 µM
same,TGI,[46],5.73 µM
same,GI50,[47],1.13 µM
same,TGI,[47],8.25 µM
same,GI50,[48],1.89 µM
same,TGI,[48],4.8 µM
same,GI50,[49],3.2 µM
same,TGI,[49],12.7 µM
same,GI50,[50],4.6 µM
same,TGI,[50],15.1 µM
same,GI50,[51],2.51 µM
same,TGI,[51],5.15 µM
same,GI50,[52],2.29 µM
same,TGI,[52],4.26 µM
same,GI50,[53],2.32 µM
same,TGI,[53],6.37 µM
same,GI50,[54],3.36 µM
same,TGI,[54],11.1 µM
same,GI50,[55],1.98 µM
same,TGI,[55],4.64 µM
same,GI50,[56],1.46 µM
same,TGI,[56],4.03 µM
same,GI50,[57],2.35 µM
same,TGI,[57],7.8 µM
same,GI50,[58],2.79 µM
same,TGI,[58],10.1 µM
